Values quoted from earlier work as cited in patent US12357587B2, “Cannabinoid monoterpene based pharmaceutical topical composition for musculoskeletal pain” (MOUNTAIN VALLEY MD INC., priority 2022, dated 2025).

Experiments:
[1] = purified compound; rat chronic constriction injury

Row | SMILES | decrease in white blood cell count (observed in 7% of patients, usually reversed within the first 4 months of therapy) [%] | increase in the risk of blood dyscrasias (patients taking carbamezepine) | patients with a 25% decrease in white blood cell count (usually reversed within the first 4 months of therapy) [%] | relief of neuropathic pain [1]
1 | NC(=O)N1c2ccccc2C=Cc2ccccc21 [carbamezepine] | 25 | five- to eight | 7 | –
2 | C=C(C)[C@@H]1CCC(C)=C[C@H]1c1c(O)cc(CCCCC)cc1O [cannabidiol (CBD), cannabidiol] | – | – | – | partially relieved neuropathic pain
